Converted amounts (≈) assume the structure as drawn.
Columns and labels:
PI3Kδ = PI3Kδ (Homo sapiens, UniProt O00329); assay: ADP-Glo luminescent assay, enzymatic activity of PI3K delta; type: biochemical; settings: ATP 25 μM; read-out: PI3K delta (nM) inhibitory activity (IC50)
Method: Enzymatic activity of PI3K isoforms: Enzymatic activity of the class I PI3K isoforms in the presence of the compounds of Table 1 was measured using ADP-Glo luminescent assay against PI3Kα, PI3Kβ, PI3Kδ and PI3Kγ with ATP concentration at 25 μM. […] The compounds would be tested from 1 or 10 μM, 3-fold dilution for 10 doses, in duplicate.
(§1) Compound preparation: Dilute a compound to 100× of the final desired highest inhibitor concentration in reaction by 100% DMSO. Transfer 100 μl of this compound dilution to a well in a 96-well plate and serially dilute it with DMSO for a total of 10 concentrations.
(§2) Kinase reaction: Prepare a solution of PI3K in 1× kinase buffer at 2-fold the final concentration of each reagent in the assay. Control wells contain 1× kinase buffer without enzyme. Prepare substrate solution of PIP2 substrate and ATP in 1× kinase reaction buffer at 2-fold of the final concentration. Add concentration substrate solution to each well to the final concentration. Cover the assay plate, shake to mix, and incubate at room temperature for 1 hour. Add 5 μl of ADP-Glo reagent to each well to stop the reaction. Mix briefly with a quick spin, shake slowly on the shaker for 120 min. Add 10 ul Kinase Detection Reagent to each well, shake 1 min, equilibrate for 30 min before reading on a luminescence plate reader.
(§3) Data Analysis: Convert RLU values to percent inhibition values as Percent inhibition=(max−sample RLU)/(max−min)*100. “min”—no enzyme control; “max”—DMSO control. Fit the data in XLFit excel add-in version 5.4.0.8 to obtain IC50 values. Y=Bottom+(Top−Bottom)/(1+(IC50/X)^HillSlope).

PI3Kγ = PI3Kγ (Homo sapiens, UniProt P48736); assay: ADP-Glo luminescent assay, enzymatic activity of PI3K gamma; type: biochemical; settings: ATP 25 μM; read-out: PI3K gamma (nM) inhibitory activity (IC50)
Chain of PI3Kγ (P48736 whole entry, species assumed): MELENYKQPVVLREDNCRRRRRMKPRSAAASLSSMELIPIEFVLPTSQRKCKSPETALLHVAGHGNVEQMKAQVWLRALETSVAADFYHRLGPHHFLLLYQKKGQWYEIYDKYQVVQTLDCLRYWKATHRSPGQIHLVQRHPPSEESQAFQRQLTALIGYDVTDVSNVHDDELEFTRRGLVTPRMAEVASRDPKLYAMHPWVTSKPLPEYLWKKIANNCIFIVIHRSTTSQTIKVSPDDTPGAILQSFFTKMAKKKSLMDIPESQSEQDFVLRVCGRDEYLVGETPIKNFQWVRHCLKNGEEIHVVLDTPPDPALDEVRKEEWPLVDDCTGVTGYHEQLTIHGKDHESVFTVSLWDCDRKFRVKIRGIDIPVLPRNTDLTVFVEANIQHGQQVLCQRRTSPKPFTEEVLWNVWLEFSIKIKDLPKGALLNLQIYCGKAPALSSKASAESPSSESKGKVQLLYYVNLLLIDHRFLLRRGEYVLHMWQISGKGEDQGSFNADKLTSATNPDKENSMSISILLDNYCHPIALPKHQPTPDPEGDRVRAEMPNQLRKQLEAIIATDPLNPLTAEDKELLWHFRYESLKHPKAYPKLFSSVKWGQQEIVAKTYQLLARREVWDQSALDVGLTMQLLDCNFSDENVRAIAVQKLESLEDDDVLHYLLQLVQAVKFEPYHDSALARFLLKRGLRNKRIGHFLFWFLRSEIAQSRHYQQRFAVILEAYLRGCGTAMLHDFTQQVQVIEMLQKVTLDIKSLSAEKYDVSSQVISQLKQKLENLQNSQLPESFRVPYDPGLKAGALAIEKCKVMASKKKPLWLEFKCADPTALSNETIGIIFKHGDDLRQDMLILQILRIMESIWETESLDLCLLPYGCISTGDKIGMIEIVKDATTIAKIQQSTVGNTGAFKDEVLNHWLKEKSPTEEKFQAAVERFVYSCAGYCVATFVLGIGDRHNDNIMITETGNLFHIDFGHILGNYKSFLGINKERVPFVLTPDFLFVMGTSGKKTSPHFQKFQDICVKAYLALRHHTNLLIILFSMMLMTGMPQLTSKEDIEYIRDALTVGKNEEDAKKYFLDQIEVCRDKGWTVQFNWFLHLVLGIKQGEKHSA
Method: The compounds would be tested from 1 or 10 μM, 3-fold dilution for 10 doses, in duplicate.
as §1
as §2, with “Mix briefly with a quick spin, shake slowly on the shaker for 120 min.” left out
as §3

PI3K gamma = biological target: T1, PI3K gamma (Mus musculus, UniProt Q9JHG7); assay: Raw264.7 cell assay: phosphorylation of AKT in C5a stimulated RAW264.7 cells (AlphaLISA); type: cell-based; settings: pAKT, read-out: PI3K gamma Raw264.7 cell (nM) cellular activity (IC50)
T1 construct: endogenous in cells; host or cells: RAW264.7
T1 sequence (Q9JHG7 whole entry): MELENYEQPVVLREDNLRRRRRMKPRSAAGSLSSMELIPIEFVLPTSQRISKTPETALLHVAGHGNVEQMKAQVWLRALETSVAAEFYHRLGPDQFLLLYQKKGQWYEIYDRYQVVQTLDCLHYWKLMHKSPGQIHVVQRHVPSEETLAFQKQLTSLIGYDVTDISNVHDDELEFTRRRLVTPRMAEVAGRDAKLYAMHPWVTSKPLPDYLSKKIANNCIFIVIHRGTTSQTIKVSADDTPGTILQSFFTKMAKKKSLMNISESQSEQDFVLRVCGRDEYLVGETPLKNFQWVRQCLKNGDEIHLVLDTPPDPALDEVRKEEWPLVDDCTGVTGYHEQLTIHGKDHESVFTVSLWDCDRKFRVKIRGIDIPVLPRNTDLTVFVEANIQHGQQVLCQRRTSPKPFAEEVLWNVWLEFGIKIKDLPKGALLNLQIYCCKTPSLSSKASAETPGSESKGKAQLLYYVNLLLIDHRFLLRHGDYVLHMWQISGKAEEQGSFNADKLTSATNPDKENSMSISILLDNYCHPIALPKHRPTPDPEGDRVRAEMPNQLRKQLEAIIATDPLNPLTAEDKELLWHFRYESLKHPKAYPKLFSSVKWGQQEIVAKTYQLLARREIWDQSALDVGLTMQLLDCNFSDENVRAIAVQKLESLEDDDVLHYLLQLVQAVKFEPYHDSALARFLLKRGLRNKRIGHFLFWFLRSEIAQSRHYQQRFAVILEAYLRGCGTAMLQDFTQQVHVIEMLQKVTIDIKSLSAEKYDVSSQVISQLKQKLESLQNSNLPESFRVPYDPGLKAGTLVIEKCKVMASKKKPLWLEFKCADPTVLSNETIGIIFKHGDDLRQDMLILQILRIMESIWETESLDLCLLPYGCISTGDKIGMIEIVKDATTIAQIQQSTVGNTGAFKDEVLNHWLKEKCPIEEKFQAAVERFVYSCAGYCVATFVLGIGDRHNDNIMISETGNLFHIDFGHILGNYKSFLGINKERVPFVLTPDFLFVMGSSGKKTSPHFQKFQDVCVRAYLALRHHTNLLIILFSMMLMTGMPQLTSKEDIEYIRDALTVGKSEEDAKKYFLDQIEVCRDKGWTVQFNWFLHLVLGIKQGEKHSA
T1 sequence (Q5SW28 whole entry partner): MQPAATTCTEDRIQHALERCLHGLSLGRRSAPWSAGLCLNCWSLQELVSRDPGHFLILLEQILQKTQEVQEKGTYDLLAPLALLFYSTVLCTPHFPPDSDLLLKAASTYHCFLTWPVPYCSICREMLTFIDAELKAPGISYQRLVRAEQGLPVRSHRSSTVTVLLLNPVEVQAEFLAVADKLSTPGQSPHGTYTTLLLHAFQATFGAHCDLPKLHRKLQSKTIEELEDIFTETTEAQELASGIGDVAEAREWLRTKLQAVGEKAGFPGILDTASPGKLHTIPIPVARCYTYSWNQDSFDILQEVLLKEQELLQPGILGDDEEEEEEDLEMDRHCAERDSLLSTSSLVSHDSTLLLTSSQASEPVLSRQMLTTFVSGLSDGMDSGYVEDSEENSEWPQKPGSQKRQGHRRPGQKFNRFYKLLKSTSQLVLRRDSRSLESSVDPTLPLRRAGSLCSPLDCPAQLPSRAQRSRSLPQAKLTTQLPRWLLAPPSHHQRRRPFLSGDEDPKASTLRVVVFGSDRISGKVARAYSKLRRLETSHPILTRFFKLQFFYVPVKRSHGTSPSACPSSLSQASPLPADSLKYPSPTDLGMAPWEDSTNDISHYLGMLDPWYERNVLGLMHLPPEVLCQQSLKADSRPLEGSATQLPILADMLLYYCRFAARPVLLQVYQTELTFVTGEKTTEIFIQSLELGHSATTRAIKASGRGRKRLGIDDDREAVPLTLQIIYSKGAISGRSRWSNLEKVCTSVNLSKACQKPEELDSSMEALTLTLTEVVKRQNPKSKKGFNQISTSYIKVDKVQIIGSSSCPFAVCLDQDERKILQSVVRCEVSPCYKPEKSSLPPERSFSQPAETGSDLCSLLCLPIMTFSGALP
Method: This study aims to determine the inhibitory effect of compounds on PI3K gamma and PI3K delta in corresponding cell based assays. PI3K gamma activity was reflected by phosphorylation of AKT in C5a stimulated RAW264.7 cells, and PI3K delta activity was reflected by phosphorylation of AKT in anti-IgM stimulated Raji cells. Phosphorylation of AKT in cells was determined using AlphaLISA technology from PerkinElmer.
Raw264.7 cell assay: Prepare Passage 15 Raw264.7 cell and add 6 μL of 30K cells per well in 384-well plate by multidrop. Centrifuge at 500 RPM for 30 s and incubate for 2 hours at 37° C., 5% CO2. Add 30 nL compound by echo and incubate for 30 min at 37° C., 5% CO2. […] Add 2 μL of 5× lysis buffer by multidrop, incubate for 10 min on a plate shaker. Add 5 μL acceptor mix provided in the kit, centrifuge at 1000 RPM for 1 min. Add 5 μL donor mix provided in the kit, centrifuge at 1000 RPM for 1 min and incubate in dark for 2 hours at 25° C. Read AlphaLISA signal on Envision.
Y=Bottom+(Top−Bottom)/(1+10^((Log IC50−X)*Hill Slope)) X: Log of cpd concentration Y: Inhibition

[1] = Kinetic solubility test in PBS pH7.4; type: physicochemical; settings: aqueous buffer, kinetic from dmso stock; PBS pH 7.4, 25° C., 2 hours
Method: 15 μL of stock solution (10 mM) was placed in order into their proper 96-well rack. 485 μL of PBS pH7.4 was added into each vial of the cap-less Solubility Sample plate. The assay was performed in singlet. Add one stir stick to each vial and seal using a molded PTFE/Silicone plug. […] After completion of the 2 hours, the samples from the Solubility Sample plate were transferred into the filter plate. all the samples were filtered using the Vacuum Manifold. Aliquot of 5 μL was taken from the filtrate followed by addition of 495 μL of a mixture of H2O and acetonitrile containing internal standard (1:1). A certain proportion of ultrapure water was used to dilute the diluent according to the peak shape. The dilution factor was changed according to the solubility values and the LC-MS signal response.
Preparation of 3 μM standards (STD): From the 10 mM DMSO STD plate, 6 μL was transferred into the remaining empty plate, and then 194 μL of DMSO was added to that plate to have a STD concentration of 300 μM. From the 300 μM DMSO STD plate, 5 μL was transferred into the remaining empty plate, and then 495 μL of a mixture of H2O and acetonitrile containing internal standard (1:1) was added to that plate to have a final STD concentration of 3 μM. A certain proportion of ultrapure water was used to dilute the diluent according to the peak shape. The concentrations of the standard samples were changed according to the LC-MS signal response.
Procedure for sample analysis: The plate was placed into the well plate autosampler. The samples were evaluated by LC-MS/MS analysis.
Data analysis: All calculations were carried out using Microsoft Excel.
The filtrate was analyzed and quantified against a standard of known concentration using LC coupled with mass spectral peak identification and quantitation. Solubility values of the test compound and control compound were calculated as follows:
[formula] • Any value of the compounds that was not within the specified limits was rejected and the experiment was repeated.

Chain of PI3Kδ (O00329 whole entry, species assumed, canonical isoform): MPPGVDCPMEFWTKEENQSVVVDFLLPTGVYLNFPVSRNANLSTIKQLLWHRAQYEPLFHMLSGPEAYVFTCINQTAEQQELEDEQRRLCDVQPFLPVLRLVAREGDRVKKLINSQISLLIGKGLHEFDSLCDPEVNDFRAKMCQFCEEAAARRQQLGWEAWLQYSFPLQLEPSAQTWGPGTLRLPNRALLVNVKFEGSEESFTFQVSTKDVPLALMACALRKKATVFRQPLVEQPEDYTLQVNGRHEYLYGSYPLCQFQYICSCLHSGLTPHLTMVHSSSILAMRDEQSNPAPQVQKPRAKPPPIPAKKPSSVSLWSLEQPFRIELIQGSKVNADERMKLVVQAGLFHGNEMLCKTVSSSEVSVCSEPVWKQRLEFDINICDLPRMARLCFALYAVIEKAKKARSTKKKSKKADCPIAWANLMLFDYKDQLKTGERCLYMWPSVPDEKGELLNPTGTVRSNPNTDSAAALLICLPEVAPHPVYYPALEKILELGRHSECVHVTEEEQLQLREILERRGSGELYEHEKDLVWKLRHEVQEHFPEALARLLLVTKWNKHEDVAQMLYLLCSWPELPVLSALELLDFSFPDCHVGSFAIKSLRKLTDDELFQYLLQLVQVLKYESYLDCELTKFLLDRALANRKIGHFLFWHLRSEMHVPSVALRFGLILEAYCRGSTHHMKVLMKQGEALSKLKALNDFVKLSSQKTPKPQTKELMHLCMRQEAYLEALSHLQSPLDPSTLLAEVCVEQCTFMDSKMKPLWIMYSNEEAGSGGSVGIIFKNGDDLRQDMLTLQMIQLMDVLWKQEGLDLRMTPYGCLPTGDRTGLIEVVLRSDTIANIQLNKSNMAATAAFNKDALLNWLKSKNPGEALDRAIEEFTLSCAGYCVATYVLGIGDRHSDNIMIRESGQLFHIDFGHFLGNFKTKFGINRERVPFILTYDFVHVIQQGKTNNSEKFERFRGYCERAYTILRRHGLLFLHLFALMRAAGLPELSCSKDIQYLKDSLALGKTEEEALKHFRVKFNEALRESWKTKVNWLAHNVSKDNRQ
Chain of PI3Kδ (P27986 whole entry partner, species assumed, canonical isoform): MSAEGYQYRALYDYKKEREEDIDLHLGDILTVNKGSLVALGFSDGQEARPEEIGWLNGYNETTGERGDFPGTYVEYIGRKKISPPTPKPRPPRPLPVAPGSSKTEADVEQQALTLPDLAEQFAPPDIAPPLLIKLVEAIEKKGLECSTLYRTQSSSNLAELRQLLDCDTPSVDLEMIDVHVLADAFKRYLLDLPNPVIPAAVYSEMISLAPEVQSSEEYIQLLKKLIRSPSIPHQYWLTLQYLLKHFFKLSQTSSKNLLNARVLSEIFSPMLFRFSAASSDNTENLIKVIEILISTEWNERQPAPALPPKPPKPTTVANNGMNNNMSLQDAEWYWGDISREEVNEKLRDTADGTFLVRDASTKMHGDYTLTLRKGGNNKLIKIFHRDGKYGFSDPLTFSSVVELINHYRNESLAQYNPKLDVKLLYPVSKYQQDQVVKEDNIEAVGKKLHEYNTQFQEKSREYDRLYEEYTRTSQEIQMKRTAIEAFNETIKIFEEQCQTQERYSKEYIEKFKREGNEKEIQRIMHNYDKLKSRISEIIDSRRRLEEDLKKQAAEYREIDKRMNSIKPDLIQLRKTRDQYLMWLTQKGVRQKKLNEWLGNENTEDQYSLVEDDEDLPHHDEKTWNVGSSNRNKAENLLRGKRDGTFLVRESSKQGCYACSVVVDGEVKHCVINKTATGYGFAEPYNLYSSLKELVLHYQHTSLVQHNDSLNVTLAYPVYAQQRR

IC50 (PI3Kδ) [nM] | IC50 (PI3Kγ) [nM] | IC50 (PI3K gamma) [nM] | solubility at 2 h [1] [µM] | Structure (SMILES)
2080 | 1.7 | 30 | 211 (≈ 88.1 µg/mL) | CC(=O)Nc1nc(C)c(-c2cc3c(c([S@@+](C)[O-])c2)C(=O)N([C@@H](C)C2CC2)C3)s1 (racemic) [Compound 12, N-(5-(2-((S)-1-cyclopropylethyl)-7-(methylsulfinyl)-1-oxoisoindolin-5-yl)-4-methylthiazol-2-yl)acetamide]
784 | 1.9 | 130 | 245 (≈ 106 µg/mL) | CC(=O)Nc1nc(C)c(-c2cc3c(c([S@](C)(=N)=O)c2)C(=O)N([C@@H](C)C2CC2)C3)s1 (racemic) [Compound 15, N-(5-(2-((S)-1-cyclopropylethyl)-7-(S-methylsulfonimidoyl)-1-oxoisoindolin-5-yl)-4-methylthiazol-2-yl)acetamide]
1250 | 2.4 | 3.3 | 32 (≈ 15 µg/mL) | CC(=O)Nc1nc(C)c(-c2cc3c(c(N4CCOCC4)n2)C(=O)N(C(C)C(F)(F)F)C3)s1 (stereo in doubt) [Compound 36, (R)-N-(4-methyl-5-(4-morpholino-3-oxo-2-(1,1,1-trifluoropropan-2-yl)-2,3-dihydro-1H-pyrrolo[3,4-c]pyridin-6-yl)thiazol-2-yl)acetamide]
> 1000 | 3.7 |  |  | CCC(=O)Nc1nc(C)c(-c2cc3c(c(P(C)(C)=O)c2)C(=O)N([C@@H](C)C2CC2)C3)s1 [Compound 2, (S)-N-(5-(2-(1-cyclopropylethyl)-7-(dimethylphosphoryl)-1-oxoisoindolin-5-yl)-4-methylthiazol-2-yl)propionamide]
361 | 34 | 115 |  | CC(=O)Nc1nc(C)c(-c2cnc3c(c2)CN([C@@H](C)C2CC2)C3=O)s1 [Compound 8, (S)-N-(5-(6-(1-cyclopropylethyl)-7-oxo-6,7-dihydro-5H-pyrrolo[3,4-b]pyridin-3-yl)-4-methylthiazol-2-yl)acetamide]
359 | 2.5 | 290 |  | CC(=O)Nc1nc(C)c(-c2ccc3c(c2)CN([C@@H](C)C2CC2)C3=O)s1 [Compound 10, (S)-N-(5-(2-(1-cyclopropylethyl)-1-oxoisoindolin-5-yl)-4-methylthiazol-2-yl)acetamide]
> 1000 | 1.6 | 28 |  | CC(=O)Nc1nc(C)c(-c2cc3c(c(S(C)(=O)=O)n2)C(=O)N([C@@H](C)C2CC2)C3)s1 [Compound 19, (S)-N-(5-(2-(1-cyclopropylethyl)-4-(methylsulfonyl)-3-oxo-2,3-dihydro-1H-pyrrolo[3,4-c]pyridin-6-yl)-4-methylthiazol-2-yl)acetamide]
> 1000 | 1.4 |  |  | CC(=O)Nc1nc(C)c(-c2cc3c(c(NC(=O)C4CC4)n2)C(=O)N([C@@H](C)C2CC2)C3)s1 [Compound 26, (S)-N-(6-(2-acetamido-4-methylthiazol-5-yl)-2-(1-cyclopropylethyl)-3-oxo-2,3-dihydro-M-pyrrolo[3,4-c]pyridin-4-yl)cyclopropanecarboxamide]
 | 2 | 6.3 | 25 (≈ 12.1 µg/mL) | CC(=O)Nc1nc(C)c(-c2cc3c(c(N4CCN(C(C)=O)CC4)n2)C(=O)N([C@@H](C)C2CC2)C3)s1 [Compound 40, (S)-N-(5-(4-(4-acetylpiperazin-1-yl)-2-(1-cyclopropylethyl)-3-oxo-2,3-dihydro-1H-pyrrolo[3,4-c]pyridin-6-yl)-4-methylthiazol-2-yl)acetamide]
 | 2.3 |  | 3.5 (≈ 1.5 µg/mL) | CC(=O)Nc1ncc(-c2cc3c(c(N4CCOCC4)n2)C(=O)N([C@@H](C)C2CC2)C3)s1 [Compound 41, (S)-N-(5-(2-(1-cyclopropylethyl)-4-morpholino-3-oxo-2,3-dihydro-1H-pyrrolo[3,4-c]pyridin-6-yl)thiazol-2-yl)acetamide]
 | 1.8 |  | 2.6 (≈ 1.12 µg/mL) | COCCOc1nc(-c2sc(NC(C)=O)nc2C)cc2c1C(=O)N([C@@H](C)C1CC1)C2 [Compound 42, (S)-N-(5-(2-(1-cyclopropylethyl)-4-(2-methoxyethoxy)-3-oxo-2,3-dihydro-1H-pyrrolo[3,4-c]pyridin-6-yl)-4-methylthiazol-2-yl)acetamide]
> 1000 | 0.87 | 5.1 | 1.2 (≈ 0.496 µg/mL) | CC(=O)Nc1nc(C)c(-c2cc3c(c(NC(C)=O)n2)C(=O)N([C@@H](C)C2CC2)C3)s1 [Compound 44, (S)-N-(5-(4-acetamido-2-(1-cyclopropylethyl)-3-oxo-2,3-dihydro-M-pyrrolo[3,4-c]pyridin-6-yl)-4-methylthiazol-2-yl)acetamide]
 | 0.7 | 3.8 | 6.1 (≈ 2.78 µg/mL) | CC(=O)Nc1nc(C)c(-c2cc3c(c(N4CCC(O)CC4)n2)C(=O)N([C@@H](C)C2CC2)C3)s1 [Compound 46, (S)-N-(5-(2-(1-cyclopropylethyl)-4-(4-hydroxypiperidin-1-yl)-3-oxo-2,3-dihydro-1H-pyrrolo[3,4-c]pyridin-6-yl)-4-methylthiazol-2-yl)acetamide]
 |  |  | 6.4 (≈ 3.38 µg/mL) | C[C@H](NC(=O)c1c(N)nn2cccnc12)c1cc2cccc(C#Cc3cnn(C)c3)c2c(=O)n1-c1ccccc1 [IPI-549, reference compound]
